From patent publication US8198266B2, “Use of an EGFR antagonist for the treatment of glomerolonephritis” (INSERM (Institut National de la Sante et de la Recherche …, priority 2006, dated 2012)
Entries after “also recorded” stand apart in the source; their conditions may differ.

How the values were obtained:
EGFR = molecular target: T1, EGFR (Mus musculus, UniProt Q01279); assay: Phosphorylation of EGFR in renal cortex/glomeruli (western blot, immunofluorescence) during experimental RPGN; type: in vivo
T1 construct: Proteins were extracted from kidneys using a lysis buffer; from tissue; host or cells: mouse kidney (renal cortex, glomeruli); wild type and HB-EGF-/- mice on mixed C57BL/6J x 129 background
Description: On day 14, mice were sacrified.
For immunofluorescence in mouse tissues, cryostat sections of 4 μm were immediately fixed in acetone, washed in PBS and then incubated with antibodies in a humid incubator. Deposits of mouse IgG in kidney were evaluated using FITC rat anti-mouse IgG (FI2000, Vector) (1:100 dilution, incubation for 1 hour at room temperature).
Western blot analysis: Proteins were extracted from kidneys using a lysis buffer (Phosphosafe extraction buffer, Novagen) and quantified according to Bradford's method. […] Immunoblotting was performed using the rabbit anti phospho-EGFR (Cell Signaling) diluted 1:1,000 or a rabbit anti-EGFR diluted 1:5,000 (Cell Signaling) as control for lane loading. Then, horseradish peroxidase-linked donkey secondary antibody (Amersham Pharmacia Biotech) diluted 1:2,000 was added and revelation was subsequently made using ECL plus kit (Amersham Pharmacia Biotech) on autoradiography film, followed by densitometric analysis.

[1] = tested on: anti-GBM nephrotoxic serum-induced crescentic glomerulonephritis (RPGN) in mice; assay: Histopathology and immunohistochemistry (crescentic glomeruli, CD3 positive cells) in accelerated anti-GBM crescentic glomerulonephritis; type: in vivo, mouse
[2] = tested on: anti-GBM nephrotoxic serum-induced crescentic glomerulonephritis (RPGN) in mice; assay: Assessment of ascitis, renal function and albuminuria in accelerated anti-GBM crescentic glomerulonephritis; type: in vivo, mouse
Description: Assessment of […], renal function and albuminuria: […] Stage 2 to 4 were associated with clinically evident […] weight gain before sacrifice. Serum and urinary creatinine, and blood urea nitrogen (BUN) were quantified spectrophotometrically using a colorimetric method. Urinary albumin excretion was measured using a specific ELISA assay for quantitative determination of albumin inmouse urine (CellTrend GmbH).

[3] = tested on: anti-GBM nephrotoxic serum-induced crescentic glomerulonephritis (RPGN) in mice; assay: Survival in accelerated anti-GBM crescentic glomerulonephritis; details: AG1478-treated HB-EGF(+/+) mice
Description: Briefly, WT and HB-EGF−/− mice received subcutaneous injection with 200 μg normal sheep IgG (100 μl in each flank of normal sheep IgG (Sigma) diluted to 1 mg/ml in a solution of 50% freund complete adjuvent and 50% saline). Six days later (day 1), glomerulonephritis (GN) was induced by intravenous injection of 50 μl sheep anti-glomerular basement membrane (GBM) serum diluted to 7 mg/ml in saline. Serum injection was repeated twice (days 2 and 3), with serum dilution increased to 70 mg/ml. On days 0, 1, 2, 3, 5 and 7, mice received intraperitoneal injection of either AG1478 (LC Laboratories), a pharmacological inhibitor of EGFR tyrosine kinase activity (30 mg.kg-1.day-1 in 100 μl of a saline solution with 1% carboxymethylcellulose (CMC) and 10% DMSO), or 100 μl of saline solution with 1% CMC and 10% DMSO as control. On day 8, mice were sacrified after body weight measurement and 12 hours urines collection with metabolic cages. […] On day 14, mice were sacrified. Blood was obtained from mice by aortic catheterization. Kidneys from each mouse were processed for immunohistochemistry, protein and mRNA analysis, and the remaining half-kidney fixed in 10% neutral-buffered formalin for histological study.

[4] = day 8, AG1478 30 mg/kg i.p., wild type mice, 30 mg/kg
[5] = day 14, erlotinib preventive (d0-14) or curative (d4-14) protocol

T1 sequence (Q01279 25-1210): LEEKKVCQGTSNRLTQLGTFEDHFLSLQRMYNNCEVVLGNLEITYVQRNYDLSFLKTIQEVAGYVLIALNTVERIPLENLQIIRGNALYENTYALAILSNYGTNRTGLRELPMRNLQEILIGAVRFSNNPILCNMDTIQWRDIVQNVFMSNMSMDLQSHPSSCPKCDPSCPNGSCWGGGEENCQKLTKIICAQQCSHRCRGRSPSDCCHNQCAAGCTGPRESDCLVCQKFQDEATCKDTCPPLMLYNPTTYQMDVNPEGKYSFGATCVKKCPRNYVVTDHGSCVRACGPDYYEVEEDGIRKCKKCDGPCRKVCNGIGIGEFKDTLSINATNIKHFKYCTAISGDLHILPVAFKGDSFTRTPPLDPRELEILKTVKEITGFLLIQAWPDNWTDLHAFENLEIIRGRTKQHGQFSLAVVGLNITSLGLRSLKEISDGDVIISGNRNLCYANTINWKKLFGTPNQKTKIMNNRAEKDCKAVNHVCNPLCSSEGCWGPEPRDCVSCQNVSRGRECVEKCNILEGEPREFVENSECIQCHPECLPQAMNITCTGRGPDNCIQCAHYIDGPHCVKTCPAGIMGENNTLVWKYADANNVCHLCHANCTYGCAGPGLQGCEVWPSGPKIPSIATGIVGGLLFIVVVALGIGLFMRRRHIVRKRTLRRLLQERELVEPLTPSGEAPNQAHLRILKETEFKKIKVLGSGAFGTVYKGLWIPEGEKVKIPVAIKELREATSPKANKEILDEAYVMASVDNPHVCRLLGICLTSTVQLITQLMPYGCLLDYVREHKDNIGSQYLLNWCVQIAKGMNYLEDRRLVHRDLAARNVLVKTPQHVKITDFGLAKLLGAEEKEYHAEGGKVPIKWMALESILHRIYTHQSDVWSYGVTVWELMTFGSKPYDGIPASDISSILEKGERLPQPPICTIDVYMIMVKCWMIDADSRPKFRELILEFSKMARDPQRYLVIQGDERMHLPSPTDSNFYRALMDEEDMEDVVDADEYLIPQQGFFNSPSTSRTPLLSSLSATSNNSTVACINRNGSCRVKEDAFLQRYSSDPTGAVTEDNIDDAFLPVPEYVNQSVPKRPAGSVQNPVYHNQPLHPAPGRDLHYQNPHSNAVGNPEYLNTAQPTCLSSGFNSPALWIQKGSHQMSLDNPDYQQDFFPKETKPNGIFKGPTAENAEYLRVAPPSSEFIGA

COc1cc2ncnc(Nc3cccc(Cl)c3)c2cc1OC [AG1478, 4-(3-Chloroanilino)-6,7-dimethoxyquinazoline] was tested, and the “phosphorylation of EGFR (in words)” value (EGFR; AG1478 i.p. in wild type mice vs vehicle only, day 8) was “prevented the phosphorylation of EGFR”, the “pEGFR signal in glomeruli (immunofluorescence)” value (EGFR; day 8 post NTS, AG1478 30 mg/kg/day i.p.) was “faint or no signal was detectable” and the “phosphorylation of EGFR blunted (fold)” value (EGFR; renal cortex, day 8 post NTS, AG1478 30 mg/kg/day i.p. vs vehicle) was roughly 9 fold. For the same compound, the pEFGR/EGFR ratio (EGFR; renal cortex, western blot, day 8 post NTS, AG1478 30 mg/kg/day i.p., wild type mice, n=6) was 11 % of vehicle only-treated mice, the “crescent formation / renal lesions (in words)” value [1, 4] was “reduces crescent formation; also recorded: dramatically reduced the development of renal lesions” and the “periglomerular and interstitial CD3+ cell infiltrates” value [1, 4] was “reduces crescent formation and T cells infiltrates; also recorded: absent; also recorded: more effective in preventing cell infiltrate than HB-EGF deficiency”. The “% of crescentic glomeruli” value ([1]; day 8 after induction of RPGN, AG1478 30 mg/kg/day i.p., n=6) was 6.8±1.7%, the “incidence and severity of asciitis” value ([2]; day 8, AG1478 30 mg/kg i.p., vs vehicle) was “lower incidence and severity of asciitis” and the “albumin urinary leakage, renal function / renal failure (in words)” value ([2]; day 8, AG1478 30 mg/kg i.p., 30 mg/kg) was “prevents albumin urinary leakage and renal failure; also recorded: renal function was preserved”. The albuminuria ([2]; day 8, AG1478 30 mg/kg/day i.p., n=6) was 8.9±2.3 g/mmol creatinine, the BUN ([2]; day 8, AG1478 30 mg/kg/day i.p., n=6, in mM) was 6.39±2.0 and the “death within 8 days of RPGN” value [3] was “no AG1478-treated HB-EGF(+/+) mice died”.

In the case of C#Cc1cccc(Nc2ncnc3cc(OCCOC)c(OCCOC)cc23)c1.Cl [erlotinib, [6,7-bis(2-methoxyethoxy)-4-quinazolin-4-yl]-(3-ethynylphenyl)amine], the “necrotic glomerular lesions, cellular crescents, tubular proteinaceous casts and diffuse CD3 positive cells infiltrates” value ([1]; day 14, delayed erlotinib from day 4 to day 14, Masson trichrome staining) is reported as “blunted”, the “proportion of crescentic glomeruli” value ([1]; day 14, erlotinib 100 mg/kg/day per gavage, preventive (12 hours prior to anti-GBM serum), n=9) is reported as 25.0±6.9 ° A) and the “development of glomerular injury (in words)” value [1, 5] is reported as “blunted or stopped the development of glomerular injury”. The blood urea nitrogen ([2]; day 14, erlotinib 100 mg/kg/day per gavage, preventive, n=9) was 3.8 ± 0.4 mmol/L and the “renal failure / blood urea nitrogen levels (in words)” value [2, 5] was “prevented renal failure with normal blood urea nitrogen levels”.
